Test system: EAE mouse model of Multiple Sclerosis
Test: EAE MS model (clinical score, body weight)
Type: in vivo
Conditions: for progression of paralysis monitored as Clinical Score: administered 7-days after induction of MOG35-55 myelin peptide; for weight loss / body weight changes: versus Placebo mice
Excerpt: FIG. 1 is a chart illustrating the comparative effect of two compounds of the invention at lowering or blocking progression of paralysis as monitored as a Clinical Score (EAE MS model comparing parent (2,4-DNP) to prodrug (II-38) at equivalent exposures of 5 mpk parent to […] prodrug for efficacy). Legend: diamond—placebo; square—2,4-DNP 5 mpk; triangle—II-38 8 mpk; x—II-38 16 mpk; asterisk—II-38 80 mpk. P values by Ordinal Regression: 2,4-DNP 5 mpk=0.0192; II-38 8 mpk=0.000954; II-38 16 mpk=0.000124; II-38 80 mpk=0.00014 (results from logistic regression model using ordinal package from cran project, www.cran.r-project.org).
Legend: diamond—placebo; square—2,4-DNP 5 mpk; triangle—II-38 8 mpk; x—II-38 16 mpk; asterisk—II-38 80 mpk. All doses significant to preserving body weight. P values by Ordinal Regression: 2,4-DNP 5 mpk=0.0188; II-38 8 mpk<0.0001; II-38 16 mpk=0.044; II-38 80 mpk<0.0001.
In one embodiment, the compositions and methods of the invention relate to a pharmacological intervention that abolishes overt ROS production and improves the quality of the mitochondrial population by mitophagy, induces Brain Derived Neurotrophin Factor (BDNF), increases cAMP, and/or remodels cellular expression. In one embodiment, a drug of the invention thus becomes “disease modifying.” In one embodiment, a prodrug of DNP (II-38) was administered to a mouse model of Multiple Sclerosis, called the EAE, 7-days after induction of the MOG35-55 myelin peptide. The ProDrug of DNP, II-38, was administered at multiples of exposure to 2,4-DNP or DNP. […] Even though DNP historically was used in the 1930's for weight loss at high doses, here it is shown that it can paradoxically be repositioned to prevent wasting associated with neurodegenerative/autoimmune diseases at low doses.

Structure (SMILES) | progression of paralysis monitored as Clinical Score | weight loss / body weight changes
O=[N+]([O-])c1ccc(O)c([N+](=O)[O-])c1 [2,4-DNP, 2,4-dinitrophenol] | striking effect at lowering or blocking progression of paralysis | preventing weight loss seen in the Placebo mice
O=C(Oc1ccc([N+](=O)[O-])cc1[N+](=O)[O-])N1CCOCC1 [II-38, 2,4-Dinitrophenyl morpholine-4-carboxylate] | striking effect at lowering or blocking progression of paralysis | preventing weight loss seen in the Placebo mice
